{"source": "patent US5618726A", "about": "“Biodegradable azo dyes” (priority 1994, dated 1997)", "key": {"S. rochei A4": {"tested_on": "S. rochei A4", "test": "Substrate removal by Streptomyces culture", "type": "cell-based, Streptomyces rochei", "details": "growth period 14 days", "source_text": "(§1) Replicate sterile controls also were run in each experiment."}, "S. badius 252": {"tested_on": "S. badius 252", "type": "cell-based", "details": "streptomyces badius 252 culture, 336 h", "source_text": "(§2) Microbiol., 1984, 130:2905-2913.\nas §1"}, "S. diastaticus A12": {"tested_on": "S. diastaticus A12", "type": "cell-based", "details": "streptomyces diastaticus a12 culture, 336 h", "source_text": "as §2, §1"}, "S. diastaticus A13": {"tested_on": "S. diastaticus A13", "type": "cell-based", "details": "streptomyces diastaticus a13 culture, 336 h", "source_text": "as §2, §1"}, "S. rochei A10": {"tested_on": "S. rochei A10", "type": "cell-based", "details": "streptomyces rochei a10 culture, 336 h", "source_text": "as §2, §1"}, "S. rochei A14": {"tested_on": "S. rochei A14", "type": "cell-based", "details": "streptomyces rochei a14 culture, 336 h", "source_text": "as §2, §1"}, "S. chromofuscus A11": {"tested_on": "S. chromofuscus A11", "details": "streptomyces chromofuscus a11 culture, 336 h", "protocol": "as §2, §1\nThe Streptomyces were grown on the same media and under the same conditions as previously described. […] Thus, the spectrophotometric assays for substrates 1-12 were carried out at their specific isobastic points. Degradation was calculated as percent of substrates removed from culture broth, considering the evaporation factor (around 10%)."}, "S. chromofuscus A20": {"tested_on": "S. chromofuscus A20", "details": "streptomyces chromofuscus a20 culture, 336 h", "quoted_text": "(§3) Each Streptomyces species was grown in a cotton-plugged 250 ml flask containing 25 ml of the following medium: 0.2M Tris buffer (pH 7.6), 100 ml; vitamin-free Casamino acids (Difco), 1.0 g; thiamine, 100 μg; biotin, 100 μg; D-glucose, 2 g; deionized water, 900 ml.\nThe dyes were filter-sterilized and added at 0.005% (w/v) to the autoclaved basal medium. Alternatively, azo dye stock solutions were sterilized by filtration (pore size 0.2 μm) and added to autoclaved basal medium at concentrations of 50 or 100 ppm. Three replicates of every culture were incubated, and each strain was grown in media supplemented individually with every substrate. Replicate sterile controls also were run in each experiment. Cultures were incubated at 37° C. for 14 days with shaking (200-250 rpm). Three replicates for each strain growth were incubated in only the basal medium as well.\nA one ml sample of culture medium was centrifuged and then diluted 2.5-5.0 fold (actinomycete culture) or 5- to 10-fold (fungal culture) with distilled water. Alternatively, 1.0 ml of fungal supernatant was centrifuged and diluted 5-fold with 10 mM sodium 2,2-dimethylsuccinate buffer (DMS) of pH 4.5. Azo dye substrate present was then measured spectrophotometrically with a Hewlett-Packard 8452 diode array spectrophotometer operated by a PC Vectra computer equipped with HP's MS™-DOS/UV-VIS software. To be certain that changes in substrate spectra were not due to pH variations, the effects of pH on the visible absorption of each compound were also assayed within physiological pH range in the culture media. […] Thus, the spectrophotometric assays for the dyes were typically carried out at their isobestic points. For instance, the spectrophotometric assays were carried out at 450 nm for azo dye 1 and 400 nm for azo dye 2. […] The compounds were quantified by first developing standard curves of absorbance versus concentrations (0-50 μg) and then comparing measured absorbance values to the standard curves."}, "S. viridosporus T7A": {"tested_on": "S. viridosporus T7A", "test": "Substrate removal by Streptomyces culture", "details": "growth period 14 days", "quoted_text": "as §3\nThe dyes were filter-sterilized and added at 0.005% (w/v) to the autoclaved basal medium. Alternatively, azo dye stock solutions were sterilized by filtration (pore size 0.2 μm) and added to autoclaved basal medium at concentrations of 50 or 100 ppm. Three replicates of every culture were incubated, and each strain was grown in media supplemented individually with every substrate. Replicate sterile controls also were run in each experiment. […] Three replicates for each strain growth were incubated in only the basal medium as well.\nA one ml sample of culture medium was centrifuged and then diluted 2.5-5.0 fold (actinomycete culture) or 5- to 10-fold (fungal culture) with distilled water. Alternatively, 1.0 ml of fungal supernatant was centrifuged and diluted 5-fold with 10 mM sodium 2,2-dimethylsuccinate buffer (DMS) of pH 4.5. […] To be certain that changes in substrate spectra were not due to pH variations, the effects of pH on the visible absorption of each compound were also assayed within physiological pH range in the culture media. While the spectra of sulfanilic acid (Max abs at 250 nm), vanillic acid (Max abs at 252 nm and 286 nm) and acid yellow 9 (Max abs at 336 nm) were unaffected by pH over the tested pH range, the spectra of several novel azo dyes were changed as evidenced by shifts of their Absmax. Thus, the spectrophotometric assays for the dyes were typically carried out at their isobestic points. […] Spectrophotometric measurements were carried out at the absorbance maxima for azo dyes 16, 17, 18, 19, 31, and 32 (See Table 1 below). […] The compounds were quantified by first developing standard curves of absorbance versus concentrations (0-50 μg) and then comparing measured absorbance values to the standard curves."}}}
{"smiles": "COc1cc(C(=O)O)ccc1O", "note": "[Vanillic acid, 4-hydroxy-3-methoxybenzoic acid, reference compound]", "values": [{"measurement": "Percent substrate removed, S. rochei A4", "setting": "S. rochei A4", "value": 100, "unit": "%"}, {"measurement": "Percent substrate removed, S. badius 252", "setting": "S. badius 252", "value": 7, "unit": "%"}, {"measurement": "Percent substrate removed, S. diastaticus A12", "setting": "S. diastaticus A12", "value": 58, "unit": "%"}, {"measurement": "Percent substrate removed, S. diastaticus A13", "setting": "S. diastaticus A13", "value": 34, "unit": "%"}, {"measurement": "Percent substrate removed, S. rochei A10", "setting": "S. rochei A10", "value": 91, "unit": "%"}, {"measurement": "Percent substrate removed, S. rochei A14", "setting": "S. rochei A14", "value": 72, "unit": "%"}, {"measurement": "Percent substrate removed, S. chromofuscus A11", "setting": "S. chromofuscus A11", "value": 100, "unit": "%"}, {"measurement": "Percent substrate removed, S. chromofuscus A20", "setting": "S. chromofuscus A20", "value": 5, "unit": "%"}, {"measurement": "Percent substrate removed, S. viridosporus T7A", "setting": "S. viridosporus T7A", "value": 3, "unit": "%"}]}
